Laboratory results taken from ChEMBL document CHEMBL4725331, “An investigative study of antitumor properties of a novel thiazolo[4,5-d]pyrimidine small molecule revealing superior antitumor activity with CDK1 selectivity and potent pro-apoptotic properties” (Bioorg Med Chem, 2020).

Legend:
IGROV-1 = test: Antiproliferative activity against human IGROV-1 cells assessed as inhibition of cell growth measured after 48 hrs by SRB assay; type: functional
HOP-92 = test: Antiproliferative activity against human HOP-92 cells assessed as inhibition of cell growth measured after 48 hrs by SRB assay; type: functional
HCT-116 = test: Cytotoxicity against human HCT-116 cells assessed as reduction in cell viability after 48 hrs by MTT assay; type: functional, cell-based; settings: HCT-116, 48 h
WI-38 = test: Cytotoxicity against human WI-38 cells assessed as reduction in cell viability after 48 hrs by MTT assay; type: cell-based; settings: WI-38, 48 h

## COc1ccc(-n2c(=S)sc3c(=O)[nH]c(C)nc32)c(OC)c1
IGROV-1
  GI50: 0.18 µM
HOP-92
  GI50: < 0.01 µM

## CC[C@H](CO)Nc1nc(NCc2ccccc2)c2ncn(C(C)C)c2n1 [SELICICLIB]
HCT-116
  IC50: 15.5 µM
WI-38
  IC50: 24.1 µM
